Test results: ChEMBL document CHEMBL1201862, “PubChem BioAssay data set” (2004)
Activity calls are given as the source filed them. Cut-off read from the data, not from the text of the source, for most assays here: actives have a measured EC50 and inactives only a lower limit.

How the values were obtained:
[1] = molecular target: T1, Heat shock factor protein 1 (Mus musculus, UniProt P38532); assay: enhancement of HSF1-driven luciferase signal – cell-based, NIH3T3, luminescence, dose retest, confirmation (AID 435004); format: functional;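 note: stress induced by proteasome inhibitor MG132 added 30 min after compound; luciferase reporter driven by HSF1 response element in NIH3T3 cells; actives raise luminescence as potentiators of the MG132 stress response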
T1 sequence (P38532 whole entry): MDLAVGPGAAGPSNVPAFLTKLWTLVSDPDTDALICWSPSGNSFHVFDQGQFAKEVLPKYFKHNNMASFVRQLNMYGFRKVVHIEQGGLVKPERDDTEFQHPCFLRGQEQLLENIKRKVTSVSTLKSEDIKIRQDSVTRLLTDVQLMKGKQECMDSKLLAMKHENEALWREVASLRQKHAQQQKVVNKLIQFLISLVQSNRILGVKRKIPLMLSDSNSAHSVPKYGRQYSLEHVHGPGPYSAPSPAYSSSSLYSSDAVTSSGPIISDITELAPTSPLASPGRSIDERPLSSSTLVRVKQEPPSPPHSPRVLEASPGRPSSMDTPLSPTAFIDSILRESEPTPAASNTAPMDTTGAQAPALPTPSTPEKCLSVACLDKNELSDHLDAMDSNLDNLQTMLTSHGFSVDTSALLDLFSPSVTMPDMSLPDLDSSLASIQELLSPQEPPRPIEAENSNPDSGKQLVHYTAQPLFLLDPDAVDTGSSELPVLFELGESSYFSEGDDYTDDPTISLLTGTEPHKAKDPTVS

[2] = molecular target: T2, Rac GTPase-activating protein 1 (Homo sapiens, UniProt Q9H0H5); assay: blockers of MgcRacGAP-driven Rac1 GTP hydrolysis – biochemical, ADP Hunter fluorescence, primary and confirmatory, confirmation (AID 624330); format: functional
T2 sequence (Q9H0H5 whole entry): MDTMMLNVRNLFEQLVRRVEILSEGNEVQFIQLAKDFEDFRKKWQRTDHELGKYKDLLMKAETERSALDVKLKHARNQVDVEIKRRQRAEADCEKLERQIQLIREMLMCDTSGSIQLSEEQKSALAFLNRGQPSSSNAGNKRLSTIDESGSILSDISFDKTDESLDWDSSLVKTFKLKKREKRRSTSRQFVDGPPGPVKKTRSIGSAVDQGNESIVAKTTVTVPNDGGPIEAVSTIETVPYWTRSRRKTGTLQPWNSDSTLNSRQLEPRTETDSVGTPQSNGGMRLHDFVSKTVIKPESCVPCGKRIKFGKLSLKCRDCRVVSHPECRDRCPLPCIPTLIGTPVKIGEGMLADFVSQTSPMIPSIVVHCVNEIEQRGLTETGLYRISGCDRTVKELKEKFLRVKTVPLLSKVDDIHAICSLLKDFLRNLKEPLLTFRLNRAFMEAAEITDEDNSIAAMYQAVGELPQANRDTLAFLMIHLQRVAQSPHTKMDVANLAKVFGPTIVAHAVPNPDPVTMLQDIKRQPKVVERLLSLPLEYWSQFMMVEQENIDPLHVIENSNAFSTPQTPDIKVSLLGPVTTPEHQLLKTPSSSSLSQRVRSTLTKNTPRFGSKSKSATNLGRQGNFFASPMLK

[3] = molecular target: T1, Heat shock factor protein 1; assay: decrease of HSF1-responsive luciferase luminescence – cell-based, NIH3T3, dose retest, confirmation (AID 2382); format: functional;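 note: NIH3T3 fibroblasts with HSF1-driven luciferase reporter stressed by proteasome inhibitor MG132; luminescence from HSF1-driven luciferase expression after 8 hours of MG132 stress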
[4] = molecular target: T3, Corticotropin-releasing factor receptor 2/Corticotropin-releasing factor-binding protein (Homo sapiens, UniProt P24387+Q13324); assay: Dose Response confirmation of uHTS hits for small molecule antagonists of the CRF-binding protein and CRF-R2 receptor complex.; format: functional; conditions: read-out: IC50_Mean
T3 sequence (Q13324 whole entry): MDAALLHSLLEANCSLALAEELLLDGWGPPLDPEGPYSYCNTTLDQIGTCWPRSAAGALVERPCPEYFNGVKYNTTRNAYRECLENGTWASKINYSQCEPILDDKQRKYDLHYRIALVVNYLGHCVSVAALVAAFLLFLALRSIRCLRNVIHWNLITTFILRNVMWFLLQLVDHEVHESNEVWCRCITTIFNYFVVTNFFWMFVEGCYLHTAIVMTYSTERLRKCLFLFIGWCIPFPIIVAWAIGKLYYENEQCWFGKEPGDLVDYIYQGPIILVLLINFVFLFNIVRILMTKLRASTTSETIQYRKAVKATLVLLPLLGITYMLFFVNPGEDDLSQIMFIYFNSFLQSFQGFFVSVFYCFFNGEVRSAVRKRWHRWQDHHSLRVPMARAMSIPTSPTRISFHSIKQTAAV
T3 sequence (P24387 whole entry): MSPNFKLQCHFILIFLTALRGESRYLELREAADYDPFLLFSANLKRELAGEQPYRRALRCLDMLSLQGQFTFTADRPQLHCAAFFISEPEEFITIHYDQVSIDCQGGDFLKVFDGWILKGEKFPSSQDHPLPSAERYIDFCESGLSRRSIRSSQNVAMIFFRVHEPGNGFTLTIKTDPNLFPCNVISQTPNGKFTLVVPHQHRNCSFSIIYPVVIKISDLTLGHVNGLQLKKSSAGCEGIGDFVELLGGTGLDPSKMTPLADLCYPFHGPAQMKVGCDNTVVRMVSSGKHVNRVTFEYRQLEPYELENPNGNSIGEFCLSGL

[5] = molecular target: T3, Corticotropin-releasing factor receptor 2/Corticotropin-releasing factor-binding protein; assay: activators of CRF receptor 2 with binding protein – uHTS hits, confirmation (AID 602473); format: functional; conditions: read-out: EC50_Mean
[6] = molecular target: T4, RNA-binding protein pos-1 (Caenorhabditis elegans, UniProt G5EF15); assay: disruptors of C. elegans POS-1 RNA interaction – biochemical, fluorescence polarization, dose response (AID 1964);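 note: purified POS-1 fused to maltose binding protein made in E. coli; potency of compounds blocking POS-1 binding to fluorescent RNA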
T4 sequence (G5EF15 whole entry): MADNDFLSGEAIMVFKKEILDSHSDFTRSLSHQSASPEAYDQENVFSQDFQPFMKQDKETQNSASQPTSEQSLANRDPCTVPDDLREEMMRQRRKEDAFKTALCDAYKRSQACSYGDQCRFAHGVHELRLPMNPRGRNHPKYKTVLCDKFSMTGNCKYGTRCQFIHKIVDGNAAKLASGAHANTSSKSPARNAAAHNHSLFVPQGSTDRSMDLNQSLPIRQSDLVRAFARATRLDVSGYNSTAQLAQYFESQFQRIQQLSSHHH

[7] = molecular target: T5, Zinc finger protein mex-5 (Caenorhabditis elegans, UniProt Q9XUB2); assay: potency of MEX-5 RNA-binding blockers – biochemical, C. elegans, fluorescence polarization, dose response (AID 1960)
T5 sequence (Q9XUB2 whole entry): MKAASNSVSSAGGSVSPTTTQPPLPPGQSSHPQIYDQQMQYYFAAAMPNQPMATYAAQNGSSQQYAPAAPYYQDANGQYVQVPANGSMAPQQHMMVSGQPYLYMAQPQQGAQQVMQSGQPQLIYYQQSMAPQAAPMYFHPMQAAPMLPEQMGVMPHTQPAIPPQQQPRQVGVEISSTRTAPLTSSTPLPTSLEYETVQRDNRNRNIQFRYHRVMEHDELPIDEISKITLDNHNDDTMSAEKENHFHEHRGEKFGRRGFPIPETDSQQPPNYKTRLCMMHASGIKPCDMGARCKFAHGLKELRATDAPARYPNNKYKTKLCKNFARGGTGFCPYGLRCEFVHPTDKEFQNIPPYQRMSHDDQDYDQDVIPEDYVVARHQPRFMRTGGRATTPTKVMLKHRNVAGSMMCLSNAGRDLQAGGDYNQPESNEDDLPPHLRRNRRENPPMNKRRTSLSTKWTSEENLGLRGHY

CCCC(C(=O)NCc1ccco1)N(C(=O)CNS(=O)(=O)c1ccc(Cl)cc1)C1CCCC1 (centres undefined)
EC50 [1]: > 260 µM (inactive)

CSc1ccc(C(=O)C2CCCN(Cc3cccnc3)C2)cc1 (centres undefined)
EC50 [1]: > 260 µM (inactive)

COC(=O)c1cc(OC)c(OC)cc1NC(=S)NC(=O)c1ccco1
EC50 [1]: 28.2 µM (active)

CCOC(=O)c1[nH]c2ccc(OC)cc2c1NC(=O)c1ccccc1C(=O)O
IC50 [2]: 109 µM (active)

COc1ccc(-c2nc(C#N)c(N3CCCCC3)o2)cc1
EC50 [1]: > 260 µM (inactive)

O=C(CNC(=O)C1CCCCC1)OCC(=O)c1ccc(Br)cc1
EC50 [1]: > 260 µM (inactive)

O=C(O)c1cc(S(=O)(=O)N(Cc2ccccc2)c2ccccc2Cl)ccc1Cl
EC50 [3]: > 195 µM (not active)

O=C(CCNC(=O)c1ccc(Cl)cc1)Nc1ncccc1O
EC50 [3]: > 195 µM (not active)

O=C(Nc1cccc(Cl)c1)N(Cc1nc(O)c2ccccc2n1)C1CCCC1
EC50 [1]: > 260 µM (inactive)

CCn1c(S)nc2c(=O)n(C)c(=O)n(C)c21
IC50 [2]: 21.1 µM (active)

CC1(C)CC(=O)C=C(Nc2ccc(Br)cc2F)C1
EC50 [3]: > 195 µM (not active)

Cc1nn(-c2ccccc2)c(C)c1NC(=O)COC(=O)c1ccccc1OC(F)F
IC50 [4]: > 47.1 µM (inactive)
EC50 [5]: > 53 µM (inactive)

COc1ccc(N2CCN(c3ccc(C(N)=O)cc3[N+](=O)[O-])CC2)cc1
IC50 [2]: 158 µM (active)

N=C(Cc1ccc([N+](=O)[O-])cc1)NOC(=O)c1ccc(Br)cc1
IC50 [4]: 9.38 µM (active)
EC50 [5]: > 53 µM (inactive)

Cc1cc(-c2nc3ncccc3o2)ccc1NC(=S)NC(=O)C(C)C
EC50 [1]: > 260 µM (inactive)

O=C(CN1CCN(c2ccccn2)CC1)Nc1ccc(F)cc1
IC50 [2]: 78.9 µM (active)

CC(NC(=O)c1ccc(C(C)(C)C)cc1)C(c1cccs1)N1CCOCC1 (centres undefined)
EC50 [1]: > 260 µM (inactive)

CCN(CC)P(=O)(NC(=O)c1cccn1C)N(CC)CC
EC50 [3]: > 195 µM (not active)

Oc1ccc(/C=N/NC2=NCCCCC2)c(O)c1
IC50 [2]: 43.2 µM (active)

COc1cc(/C=C/C(=O)OCC(=O)NCCC2=CCCCC2)ccc1O
IC50 [2]: 49 µM (active)

Cc1nc(Nc2ccccc2)sc1C
EC50 [3]: > 195 µM (not active)

CC(C)CNC(=O)c1noc2c1CCCC2
EC50 [3]: > 195 µM (not active)

CC1CC(C)CN(CC(=O)NC(c2ccccc2)c2ccccc2)C1 (centres undefined)
IC50 [2]: 231 µM (active)

CCOc1ccccc1Nc1ccnc2cc(Cl)ccc12
IC50 [4]: > 47.1 µM (inactive)
EC50 [5]: > 53 µM (inactive)

COc1ccc(CNC(=O)CN2CCN(c3ccc(F)cc3)CC2)cc1
IC50 [4]: > 47.1 µM (inactive)
EC50 [5]: > 53 µM (inactive)

COC(=O)C1=C(C)N(Cc2ccco2)C(=O)C1
EC50 [3]: > 195 µM (not active)

CCOC(=O)C1C(=O)OC(C)(C)C1C(C)C(=O)c1ccc(C)cc1C (centres undefined)
EC50 [1]: > 260 µM (inactive)

Cc1cc(C)c(NC(=O)CSc2nnc(-c3ccncc3)n2Cc2ccco2)c(Cl)c1
EC50 [3]: > 195 µM (not active)

COc1cc(C(=O)NCc2ccccc2Cl)ccc1OCC(=O)N1CCOCC1
IC50 [4]: > 47.1 µM (inactive)
EC50 [5]: > 53 µM (inactive)

CN1CCN(S(=O)(=O)c2cccc(C(=O)NCCC3=CCCCC3)c2)CC1
EC50 [3]: > 195 µM (not active)

CC(C)C(=O)N1c2ccccc2N=C2CCCC(O)=C2C1c1ccc(N(C)C)cc1 (centres undefined)
EC50 [3]: > 195 µM (not active)

COc1ccc(NC(=O)C(=O)NCC(=O)Nc2cccc(C(F)(F)F)c2)cc1
IC50 [4]: > 47.1 µM (inactive)
EC50 [5]: > 53 µM (inactive)

COc1ccccc1C(=O)OCC(=O)c1cccc([N+](=O)[O-])c1
EC50 [3]: > 195 µM (not active)

O=C(c1cccc([N+](=O)[O-])c1)c1ccc2c(c1)OCCOCCOCCO2
IC50 [4]: > 47.1 µM (inactive)
EC50 [5]: > 53 µM (inactive)

CCN(C(=O)COC(=O)Cc1cccc2ccccc12)C1CCS(=O)(=O)C1 (centres undefined)
IC50 [4]: > 47.1 µM (inactive)
EC50 [5]: > 53 µM (inactive)

COc1cccc(F)c1C(=O)NC(=O)Nc1ccc2nc(C)oc2c1
EC50 [6]: 17.8 µM (active)
EC50 [7]: 17.4 µM (active)

CCOC(=O)c1cc(CC)sc1NC=C1C(=O)NC(=S)NC1=O
EC50 [6]: > 300 µM (not active)
EC50 [7]: 15 µM (active)

CC(C)Cc1ccc(C#N)c(SCC(N)=O)n1
EC50 [3]: > 195 µM (not active)

CCCC(C)NC(=O)c1ccc(C2SCC(=O)N2Cc2ccco2)cc1 (centres undefined)
EC50 [6]: > 300 µM (not active)
EC50 [7]: > 300 µM (not active)

COc1ccccc1-c1cc(C(=O)NN)[nH]n1
IC50 [4]: > 47.1 µM (inactive)
EC50 [5]: > 53 µM (inactive)

Cc1ccccc1[N+](=O)[O-]
IC50 [4]: > 47.1 µM (inactive)
EC50 [5]: > 53 µM (inactive)

OCCC1CN(Cc2cccc(-n3cccn3)c2)CCN1Cc1ccccc1 (centres undefined)
EC50 [3]: > 195 µM (not active)

Nc1nc(CN2CCc3ccccc3C2)nc(Nc2ccccc2)n1
IC50 [4]: > 47.1 µM (inactive)
EC50 [5]: > 53 µM (inactive)

CC(C)c1ccc(CNc2ccc(N3CCOCC3)cc2)cc1
IC50 [2]: 12.4 µM (active)

COC(=O)c1cccc(N2C(=O)C3CC=CCC3C2=O)c1 (centres undefined)
EC50 [3]: > 100 µM (not active)

C#CCOc1ccccc1CNC1CCN(Cc2ccccc2)CC1
IC50 [2]: 64.9 µM (active)

Oc1ccc(-c2csc(Nc3ncccn3)n2)cc1
IC50 [2]: 21.4 µM (active)

Cc1ccc2c(c1)N(CC(=O)O)C(=O)CO2
EC50 [3]: > 195 µM (not active)

COc1ccc(C2c3ccc(O)cc3Oc3ncn(Cc4ccco4)c(=N)c32)cc1OC (centres undefined)
EC50 [6]: > 300 µM (not active)
EC50 [7]: > 300 µM (not active)
